Data from patent US20180098969A1, “HODGKIN LYMPHOMA THERAPY” (Purdue Pharmaceutical Products L.P., priority 2016, published 2018).

Tests used:
[1] = tested on: Hodgkin lymphoma cell lines; assay: Mitotic index and chromosomal aberrations; format: cell-based, human
Protocol: (§1) The mitotic index and chromosomal aberrations for each of the cell lines were evaluated after treatment with either 20 μmol or 10 μmol EDO-S101 in DMSO. Each cell line was cultured at 37° C. in the presence of RPMI 1640 supplemented with 10% FCS and antibiotics. Colcemid (0.1 ug/ml) was added 2 h before harvesting and slides with chromosomes in metaphase were prepared following the standard methanol/acetic acid (3/1, v/v) procedure. The slides were stored at −20° C. until use.
(§2) FISH was performed using a combination of standard procedures from the recommended protocols for chromosome analysis, following telomere and centromere staining, using PNA probes. In all, 100 metaphases were scored per in vitro dose exposure.
(§3) The mitotic index was determined by measurement of the sum of all cells in prophase, metaphase, anaphase and telophase divided by the total number of cells.

L540 cell line [2] = assay: Mitotic index and chromosomal aberrations; format: cell-based, human
Protocol: as §1, §2, §3

KMH2 cell line [3] = assay: Mitotic index and chromosomal aberrations; format: cell-based, human
Protocol: as §1, §2, §3

L428 cells = assay: Cytogenetic investigation of cells from xenografted mice; format: in vivo, NSG mice; details: different doses including single 60 mg/kg
Protocol: Separated cells were cultured in the presence of RPMI 1640 supplemented with 10% Fetal Calf Serum (FCS) and antibiotics, colcemid (0.1 μg/ml) added 2 h before harvesting, and the slides with metaphase chromosomes prepared following the standard methanol/acetic acid (3/1, v/v) procedure.
Four new cell lines were generated after one month of in vitro culture following 24 hour of exposure to EDO-S101. Fluorescence in situ hybridysation (FISH) was performed using a combination of standard procedures from the recommended protocols for chromosomal analysis, following telomere and centromere staining, using peptide nucleic acid (PNA) probes in order to detect unstable chromosomal aberrations and to delimit the chromosome territory. M-FISH was performed using multi-FISH probes (Metasystems GmbH, Altlussheim, Germany), according to the manufacturer's recommendations on the same slide. Images of hybridized metaphases were captured using a charge coupled device camera (Zeiss, Thornwood, N.Y.) coupled to a Zeiss Axioplan microscope and processed using ISIS software (Metasystems).
The ocular tumour masses were harvested, as well as cells which infiltrated the liver. Five new cell lines were established from ocular tumours and the livers of both control mice (PBS or vehicle). […]

[4] = tested on: Hodgkin lymphoma cell lines (KMH2, HDML2, L540, L1236 and L426); assay: IC50 comparison of bendamustine, vorinostat and EDO-S101; format: cell-based, human; details: tumour cells of Hodgkin lymphoma
Protocol: (a) Five Hodgkin lymphoma cell lines (KMH2, HDML2, L540, L1236 and L426) were cultured separately in the presence of bendamustine, vorinostat and EDO-S101 dissolved in DMSO at 37° C. L1236-derived Hodgkin lymphoma cell lines were selected as they have an acquired stable resistance to bendamustine (R100) or an ability to display continuous growth upon extended exposure to sub-lethal concentrations of bendamustine (R25, R50 and R75). A detailed description of the L1236-R Hodgkin lymphoma cell lines is disclosed in De Filippi et al, ASH 2015, Abstract. # 2479. In these tests, the L1236-100R bendamustine resistant strain was used.

L540 cell line [5] = assay: Clonogenic survival in methylcellulose; format: cell-based, human; details: any dose (0.1 to 20 μmol)
Protocol: (§4) In all examples, the human Hodgkin lymphoma-derived cell lines L428, L428-c, KMH2, L591, L540, L1236, HDLM2 and SUP-HD were obtained from Dr Steffen Junker (Aarhus University Denmark). All cell lines were cultured in Gibco RPMI 1640 medium supplemented with Glutamax, 10% FBS and antibiotics at 37° C. […] The immunophenotype, P53 status and MSI characterization of the Hodgkin lymphoma cell lines was determined using anti-CD30, CD15, CD20 and CD14 antibodies.
(§5) This test was performed on four Hodgkin lymphoma cell lines (L428, L428s, KMH2 and L540). Each was cultured with EDO-S101 at doses of 0, 0.1, 0.5, 1, 10 and 20 μmol in DMSO. The cell lines were cultured in methylcellulose (Stem cell Technologies) at a concentration of 10^5/ml at 37° C. and 5% CO2. The surviving fraction was determined by measuring the viability of colonies generated before and after exposure. Only colonies with more than 50 cells were counted. Each data point represents the average and SD from three independent experiments performed in triplicate.

L428 = assay: Clonogenic survival in methylcellulose; format: cell-based, human; details: very low doses 0.1 and 0.5 μmol
Protocol: as §4, §5

KMH2 cell line [6] = assay: Clonogenic survival in methylcellulose; format: cell-based, human; details: lowest doses 0.1 and 0.5 μmol
Protocol: as §4, §5

L428s = assay: Clonogenic survival in methylcellulose; format: cell-based, human; details: very low doses 0.1 and 0.5 μmol
Protocol: as §4, §5

L1236 cell line = assay: Cell cycle checkpoint proteins and gene expression; format: cell-based, human; details: EDO-S101 alone
Protocol: 1.56 μM of EDO-S101 was administered to two Hodgkin lymphoma cell lines, the bendamustine naïve cell line L1236 and the bendamustine resistant cell line R100. In a second experiment, Brentuximab Vedotin was administered at a concentration of 3.12 μg/ml to the L1236 cell line and at a concentration of 0.39 μg/ml to the R100 cell line. Finally, in a third experiment EDO-S101 and Brentuximab Vedotin were administered in combination to each of the two cell lines at the same concentrations that they were administered in the monotherapy experiments.

[7] = tested on: Hodgkin lymphoma cell lines; assay: Apoptosis, annexin V-FITC and Hoechst double staining; format: cell-based, human; details: 5 μM, 24 h and 48 h, all cells
Protocol: (§6) This assay was performed on 7 cell lines (HDLM2 was excluded due to the low number of available cells) at 24 h and 48 h following EDO-S101 treatment (5 μM, DMSO). Control cells were cultured in the same final concentration of DMSO. Only viable cells (using Hoechst staining) were focused on, and all necrotic cells were excluded. Apoptosis was determined using annexin V-FITC and Hoechst (33342) double staining according to the manufacturer's instructions (BD Biosciences). Cell-cycle fractions were determined by Hoechst nuclear staining. Briefly, cells were harvested, washed in PBS, incubated with annexin V-FITC and Hoechst solution for 30 minutes at room temperature. Data were collected using a FACSCalibur flow cytometer (BD Biosciences) and analyzed with FlowJo Version 7.5.5 obtainable from FlowJo, LLC. Results represent the mean value of 3 independent experiments.

L540 cell = assay: as above; format: cell-based, human; details: 5 μM, 24 h and 48 h
Protocol: as §6

In the case of `Cn1c(CCCCCCC(=O)NO)nc2cc(N(CCCl)CCCl)ccc21` [EDO-S101], the metaphases observed ([1]; 10 μmol) was “only a few metaphases of poor quality”, the metaphases observed ([1]; 20 μmol, any cell line) was “No metaphases were observed” and the “sensitivity in mitotic index assay” value ([1]; all cell lines, 24 h of treatment) was “remarkably high sensitivity”. For the same compound, the mitotic index (L540 cell line [2]) was “very low mitotic index”, the mitotic index (KMH2 cell line [3]) was “very low mitotic index” and the “chromosomal aberrations in metaphase” value (KMH2 cell line [3]; telomere and centromere staining) was “numerous chromosomal aberrations”. The “metaphases or cell lines from cells of treated mice” value (L428 cells) was “not possible to obtain either metaphases from direct culture or establish cell lines”, the “IC50s compared with those of bendamustine” value [4] was “about ten-fold lower” and the clones observed (L540 cell line [5]) was “No clone was observed”. For the same compound, the clones observed (L428) was “only macrophagic clones being observed”, the clones observed (KMH2 cell line [6]) was “only a few clones” and the clones observed (L428s) was “only macrophagic clones being observed”. The “effect on cell cycle checkpoint proteins” value (L1236 cell line) was “activated cell cycle checkpoint proteins”, the sensitivity for apoptosis [7] was “high sensitivity” and the sensitivity for apoptosis (L540 cell) was “higher sensitivity”.
